Data published in patent publication US12201669B2, “Small molecule suppressors of APOE gene expression and cerebral vascular amyloid pathology” (Massachusetts Institute of Technology, priority 2021, dated 2025).

Legend:
APOE4/5×FAD mice = conditions: mouse, in vivo
APOE [1] = conditions: E4 pericytes, earlier work of the inventors; cited from earlier work
APOE [2] = experiment: APOE expression by qRT-PCR in APOE4/4 pericytes treated with cyclosporin analogs; format: cell-based, human; conditions: compared with cyclosporin A and FK506
Text: FIGS. 2A-2D show APOE expression measured by qRT-PCR in APOE4/4 pericytes following treatment with Cyclosporin A (FIG. 2A), FK506 (FIG. 2B), Cyclosporin D (FIG. 2C), Cyclosporin H (FIG. 2D). One-way ANOVA with Bonferroni's Multiple Comparison test, 6 replicates per a timepoint.
FK506 and cyclosporin A can reduce the expression of APOE in human pericytes and brain cells and reverse or prevent cerebrovascular pathologies associated with Alzheimer's Disease such as cerebral amyloid angiopathy. Both cyclosporine A and FK506 have immunosuppressant activity. […] Results showing APOE expression after APOE4 pericytes were treated with Cyclosporin analogs for two weeks are depicted in FIG. 1. Following treatment with Cyclosporin A, FK506, Cyclosporin D, Cyclosporin H, APOE expression was measured by qRT-PCR in APOE4/4 pericytes (see FIGS. 2A-2D).

For C=CC[C@@H]1/C=C(\C)C[C@H](C)C[C@H](OC)[C@H]2O[C@@](O)(C(=O)C(=O)N3CCCC[C@H]3C(=O)O[C@H](/C(C)=C/[C@@H]3CC[C@@H](O)[C@H](OC)C3)[C@H](C)[C@@H](O)CC1=O)[C@H](C)C[C@@H]2OC [FK506], the “toxicity compared to cyclosporine treated mice” value (APOE4/5×FAD mice) was “less toxicity”.

In the case of O=C1C=CC(=O)C2=C1C1c3ccccc3C2c2ccccc21 [INCA6], the APOE gene expression (APOE [1]) is given as “reduction” and the APOE protein (APOE [1]) is given as “reduction”.

With C/C=C/C[C@@H](C)[C@@H](O)[C@H]1C(=O)N[C@@H](C(C)C)C(=O)N(C)CC(=O)N(C)[C@@H](CC(C)C)C(=O)N[C@@H](C(C)C)C(=O)N(C)[C@@H](CC(C)C)C(=O)N[C@@H](C)C(=O)N[C@H](C)C(=O)N(C)[C@@H](CC(C)C)C(=O)N(C)[C@@H](CC(C)C)C(=O)N(C)[C@@H](C(C)C)C(=O)N1C [cyclosporin D] the “kinetics of APOE expression reduction” value (APOE [2]) was “faster kinetics” and the “potency in reducing APOE expression (able to reduce at lower doses)” value (APOE [2]) was “significantly more potent”.
